We go through 8 compounds from patent publication US4279926A, “Method of relieving pain and treating inflammatory conditions in warm-blooded animals” (priority 1974, dated 1981).

Structures can show the parent of a compound that is named as a salt.

The subject of series [1] is pain threshold in the inflamed paw (carrageenin oedema). Description: Pain threshold under pressure of the inflamed (carrageenin) rat paw (analgesic action). Particulars: for Pain threshold - carrageenin oedema: Table 3. A general note: Carrageenan injected into the paw causes an acute inflammation.
Description: At intervals after the treatment, the size of the treated paw and its sensitivity to pain under pressure were evaluated.
Series [2] relates to carrageenin oedema, inflamed paw. In words: Carrageenin oedema of the rat paw (anti-inflammatory action, paw size/volume). The series is classed as in vivo, male Wistar rats. The following applies: oral, Tables 1, 2 and 3.
A further series in a line: Solubility. The series is classed as physicochemical.
The next series in a line: clinical. Particulars: human, in vivo, po, Human blood level, single oral dose 500 mg D,L-lysine salt (Table 5) or equivalent 300 mg sodium salt (Table 6), serum, as free acid.

Description for clinical: The blood levels were then determined after 0.5, 1, 1.5, 2, 3, 4 and 5 hours.

Take `CC(C)Cc1ccc(C(C)C(=O)O)cc1` (stereo not shown) [Example 3]: the “Analgesic action, intravenous, compared with free acid and phenyl-butazone” value in series [1] (i.v., doses of the order of 10 times less, Table 4) was “clearly more active and quicker acting than both the free acid and phenyl-butazone”. Further, the “Anti-inflammatory and analgesic action compared with free acid and phenyl-butazone” value in series [2] was “as active as or more active than the equivalent dose of the corresponding free acid and is as effective as a double dose of phenyl-butazone”.

Consider `CC(C(=O)O)c1ccc(C2CCCCC2)cc1` (stereo not shown) [Example 11, arginine salt of 2-(4-cyclohexyl-phenyl)-propionic acid], for which the “Solubility in water” value in “Solubility” is reported as “moderately soluble in water”.

`CC(C)Cc1ccc(CC(=O)O)cc1` [Example 4, lysine salt of 2-(4-isobutyl-phenyl)-acetic acid]: in the series “Solubility”, the “Solubility in water” value is recorded as “soluble in water”.

Turning to `CC(C(=O)O)c1cccc(Oc2ccccc2)c1` (stereo not shown) [Example 12, arginine salt of 2-(3-phenoxy-phenyl)-propionic acid], the “Solubility in water” value in the series “Solubility” is “moderately soluble in water”.

With `C=CCOc1ccc(CC(=O)O)cc1Cl` [Example 10, arginine salt of 2-(3-chloro-4-allyloxyphenyl)-acetic acid], the “Solubility in water” value in the series “Solubility” is “moderately soluble in water”.

Regarding `CC(C)Cc1ccc(C(C)C(=O)[O-])cc1.[Na+]` (stereo not shown), in the series “clinical” (subject B), the concentration at 0.5 h stood at 10500 ng/mL, the concentration at 1 h was 16600 ng/mL, the concentration at 1.5 h turned out to be 11000 ng/mL and the concentration at 2 h stood at 10300 ng/mL. Besides, in “clinical” (subject B), the concentration at 3 h is 3000 ng/mL, the concentration at 4 h is 2700 ng/mL and the concentration at 5 h came out at 1400 ng/mL. Also, in “clinical” (subject C), the concentration at 0.5 h turned out to be 3800 ng/mL, the concentration at 1 h stood at 4500 ng/mL, the concentration at 1.5 h amounted to 6000 ng/mL and the concentration at 2 h came to 8700 ng/mL. In “clinical” (subject C), the concentration at 3 h was 8700 ng/mL, the concentration at 4 h worked out at 9600 ng/mL and the concentration at 5 h amounted to 4300 ng/mL. Besides, in the series “clinical” (subject D), the concentration at 0.5 h was 5500 ng/mL, the concentration at 1 h came out at 6000 ng/mL, the concentration at 1.5 h is 7000 ng/mL and the concentration at 2 h worked out at 16300 ng/mL. For the same compound, in “clinical” (subject D), the concentration at 3 h was 13600 ng/mL, the concentration at 4 h came out at 7300 ng/mL and the concentration at 5 h came to 6900 ng/mL. Moreover, in “clinical” (subject E), the concentration at 0.5 h is 3300 ng/mL, the concentration at 1 h turned out to be 9800 ng/mL, the concentration at 1.5 h was found to be 8700 ng/mL and the concentration at 2 h amounted to 7900 ng/mL. Further, in the series “clinical” (subject E), the concentration at 3 h was determined as 9600 ng/mL, the concentration at 4 h was 7000 ng/mL and the concentration at 5 h is 5300 ng/mL. For the same compound, in “clinical” (subject A), the concentration at 2 h was determined as 900 ng/mL, the concentration at 3 h was determined as 1300 ng/mL, the concentration at 4 h stood at 4200 ng/mL and the concentration at 5 h amounted to 6300 ng/mL. In the series “clinical” (mean), the concentration at 0.5 h turned out to be 8300 ng/mL, the concentration at 1 h was found to be 13600 ng/mL, the concentration at 1.5 h stood at 11600 ng/mL and the concentration at 2 h worked out at 12700 ng/mL. In the series “clinical” (mean), the concentration at 3 h is 10800 ng/mL, the concentration at 4 h amounted to 7800 ng/mL and the concentration at 5 h was 5400 ng/mL.

With `CC(C)Cc1ccc(C(C)C(=O)O)cc1` (stereo not shown) [Ibuprofen], the “Pain threshold - carrageenin oedema” value in series [1] (50 mg/kg p.o. (lysine salt: 30 as active substance), 0 hrs, control 101.7 ± 3.19, 50 mg/kg) worked out at 101.0 ± 2.85 g; in series [1] (50 mg/kg p.o. (lysine salt: 30 as active substance), 3 hrs, control 52.7 ± 2.00, **p = 0.01, 50 mg/kg), 85.7 ± 4.05 g; in series [1] (50 mg/kg p.o. (lysine salt: 30 as active substance), 5 hrs, control 51.3 ± 2.15, **p = 0.01, 50 mg/kg), 70.7 ± 3.45 g; in series [1] (100 mg/kg p.o. (lysine salt: 60 as active substance), 0 hrs, control 101.7 ± 3.19, 100 mg/kg), 105.3 ± 3.10 g; in series [1] (100 mg/kg p.o. (lysine salt: 60 as active substance), 3 hrs, control 52.7 ± 2.00, **p = 0.01, 100 mg/kg), 104.3 ± 3.51 g; in series [1] (100 mg/kg p.o. (lysine salt: 60 as active substance), 5 hrs, control 51.3 ± 2.15, **p = 0.01, 100 mg/kg), 80.3 ± 5.66 g. The “Pain threshold - carrageenin oedema” value is on record as 101.0 ± 3.21 g in series [1] (200 mg/kg p.o. (lysine salt: 120 as active substance), 0 hrs, control 101.7 ± 3.19, 200 mg/kg); 119.7 ± 3.50 g in series [1] (200 mg/kg p.o. (lysine salt: 120 as active substance), 3 hrs, control 52.7 ± 2.00, **p = 0.01, 200 mg/kg); 85.7 ± 4.70 g in series [1] (200 mg/kg p.o. (lysine salt: 120 as active substance), 5 hrs, control 51.3 ± 2.15, **p = 0.01, 200 mg/kg).

`O=C(O)Cc1ccccc1Oc1ccc(Cl)cc1Cl` [Example 6, lysine salt of 2-(2,4-dichlorophenoxy)-phenyl-acetic acid]: the “Solubility in water” value in the series “Solubility” is recorded as “water-soluble”.
